One compound from patent publication US20140066595A1, “Modulators of Protein Production in a Human Cell Line and Cell-free Extracts Produced Therefrom” (THERMO FISHER SCIENTIFIC BIOSCIENCES INC., priority 2012, published 2014) can be followed below.

The test system of series [1] is HeLaS3-Gluc cells. Nature of the series: Gluc expression of HeLaS3-Gluc cells treated with amiloride, with or without ER stressors. It counts as cell-based, human. On the procedure: (§1) HeLaS3-Gluc cells were plated at 10K/well and incubated overnight. Subsequently, they were pre-treated with amiloride and incubated for 1 hour. Amiloride was used at increasing doses, both alone and in the presence of cellular stressors tunicamycin or thapsigargin. When the ER stressors were included, incubation was for 2 hours, at which time Gluc was measured. The media was then changed, and amiloride and ER stressors were added again. This time incubation was overnight. The media was again changed and the amount of Gluc made was measured after two hours. Amiloride was used in amounts of 0-500 μM. Tunicamycin was used in an amount of 5 μM. Thapsigargin was used in an amount of 2 μM.

The subject of series [2] is HeLaS3-Gluc cells. In words: Viability of HeLaS3-Gluc cells treated with amiloride, with or without ER stressors. The series is classed as cell-based, human. On the procedure:
as §1

Where [3] appears, read: amiloride alone, 0-500 μM, no stress, normalized to no amiloride at 18 hours (FIG. 1).

“Also recorded” adds a separate entry of the source.

Take `N=C(N)NC(=O)c1nc(Cl)c(N)nc1N` [amiloride, 3,5-diamino-6-chloro-N-(diaminomethylene) pyrazine 2-carboxamide]: the “Gluc expression (luciferase output) under ER stress” value with HeLaS3-Gluc cells [1] (amiloride 0-500 μM with tunicamycin 5 μM or thapsigargin 2 μM, 18 hours (FIG. 3)) is given as “rescued by treatment with an increasing amount of amiloride; also recorded: can restore Gluc expression”. The “Gluc expression (luciferase output) of unstressed cells” value in the series on HeLaS3-Gluc cells [1] (setting [3]) is on record as “did not lead to increased luciferase output”. Also, the “cell viability under ER stress” value with HeLaS3-Gluc cells [2] (amiloride 0-500 μM with tunicamycin 5 μM or thapsigargin 2 μM, normalized to no stress at 18 hours (FIG. 2)) is “does not have an additional effect on cell viability”. The “viability of unstressed cells” value in the series on HeLaS3-Gluc cells [2] (setting [3]) is reported as “decrease in viability”.
